# Laboratory results published in the SangsterLogP compilation.
# Assay: method code SF-HPLC, from DOI: 10.1002/jps.2600750811, PMID: 3772750
# Settings: for logD: pH 7.4
smiles,measurement,value
CC[C@H](C(=O)OCc1ccccc1)[C@H](COC(=O)c1cccc(Cl)c1)Cc1cncn1C,logD,4.93
CC[C@H](C(=O)OCc1ccccc1)[C@H](COC(=O)c1ccccc1)Cc1cncn1C,logP,4.37
CCC(C(=O)OCc1ccccc1)C(COC(=O)Cc1ccccc1)Cc1cncn1C (stereo unspecified),logP,4
CCCC(=O)OC[C@H](Cc1cncn1C)[C@H](CC)C(=O)OCc1ccc(C)cc1,logD,4.19
CC[C@H](C(=O)OCc1ccccc1)[C@H](COC(=O)c1cccnc1)Cc1cncn1C,logP,3.05
CCCC(=O)OCC(Cc1cncn1C)C(CC)C(=O)OCc1ccccc1 (stereo unspecified),logD,3.63
CC[C@H](C(=O)OCc1ccc(C)cc1)[C@H](COC(=O)C(C)(C)C)Cc1cncn1C,logD,4.4
CC[C@H](C(=O)OCc1ccc(Cl)cc1)[C@H](COC(=O)c1ccccc1)Cc1cncn1C,logP,4.9
CC[C@H](C(=O)OCc1ccc(C)cc1)[C@H](COC(=O)c1ccccc1)Cc1cncn1C,logD,4.7
CCCCCC(=O)OCC(Cc1cncn1C)C(CC)C(=O)OCc1ccccc1 (stereo unspecified),logD,4.6
CC[C@H](C(=O)OCc1ccc(C)cc1)[C@H](COC(C)=O)Cc1cncn1C,logD,3.16
